Consider one compound from paper PMC6588435 (Cell chemical biology, 2019).

Converted amounts (≈) assume the structure as drawn.

Assay [1] deals with PAS-resistant Mtb mutant thyX (−16 C->T). Format: cell-based, Mycobacterium tuberculosis.
The subject of assay [2] is PAS-resistant Mtb mutant folC (I43T). Type of assay: cell-based, Mycobacterium tuberculosis.
A further assay relates to Mtb. The following applies: rising up to; ref Zhao et al., 2014; cited from earlier work.
The next assay concerns INCA-R Mtb strains. Put plainly: microbe, parasite or virus in culture. Format: cell-based, Mycobacterium tuberculosis.
In assay [3] the test system is PAS-resistant Mtb mutant folC (E153G). Type of assay: cell-based, Mycobacterium tuberculosis.

With `Nc1ccc(C(=O)O)c(O)c1` [PAS, para-aminosalicylic acid], the “MIC, thyX (−16 C->T)” value in assay [1] was found to be 16 µg/mL (≈ 104 µM). The “MIC, folC (I43T)” value in assay [2] is 32 µg/mL (≈ 209 µM). The “MIC values of PAS-resistant mutants” value in the assay with Mtb is given as “up to 8 μg/mL”. The “elevation of MIC in INCA-R strains (loss of potency)” value in the assay with INCA-R Mtb strains came to 32 fold. The MIC in the assay on INCA-R Mtb strains (Mycobacterium tuberculosis, read-out: MIC of INCA-R strains) is 16 µg/mL. Moreover, the “MIC, folC (E153G)” value in assay [3] is 32 µg/mL (≈ 209 µM).
